Earlier results on one compound are cited in US11576929B2, “Composition for inflammatory gastrointestinal disorders” (SUMITOMO SEIKA CHEMICALS CO., LTD., priority 2018, dated 2023).

The series deals with colitis in rats. The conditions noted are these: direct inhalation into rats.

As for `[C-]#[O+]` [CO (gas), carbon monoxide], the colitis result was “inhibited colitis”.
